According to article PMC6844378, “Structure activity relationship studies on Amb639752: toward the identification of a common pharmacophoric structure for DGKα inhibitors” (Journal of Enzyme Inhibition and Medicinal Chemistry, 2019):
“Also recorded” adds a separate entry of the source.

Legend:
DGKζ = target: T1, DGKζ (Homo sapiens, UniProt Q13574); test: Isoform specificity, DGKζ homogenates of transfected 293T cells; assay type: biochemical; details: 100 µM; 293T homogenates
T1 construct: expressed in transfected cells; host or cells: 293T cells, transient transfection (Lipofectamine 3000), crude homogenate
Description: (§1) 293T cells were transiently transfected with indicated DGK isoform plasmid DNA using Lipofectamine 3000, Invitrogen (Carlsbad, CA). Forty eight hours after transfection, cells were harvested and homogenised with a 29 G-needle using 500 µL of homogenate buffer for each dish and immediately stored in aliquots at –80 °C. Cells transfected with empty vector were used as controls, overexpressed DGK has an activity >50 folds the endogenous.
(§2) Essentionally, the same procedure was followed as reported previously in Velnati et al.[9] In brief, DGK activity was assayed by measuring initial velocities (5 min at 27 °C) in presence of saturating substrate concentrations. Reaction conditions: 0.9 µg/µL 1,2-dioleoyl-sn-glycerol, 5 mM ATP, 0.01 µCi/µL [γ^32P]-ATP, 1 mM sodium orthovanadate, 10 mM MgCl2, 1.2 mM EGTA in 7.5 mM Hepes pH 8[12]. Reaction mixture is assembled mixing enzyme (24.5 µL of homogenate), 100× inhibitor or DMSO (0.5 µL), 5× ATP solution (10 µL of 25 mM ATP, 0.05 µCi/µL [γ^32P]-ATP (Perkin-Elmer, Milan, Italy), 5 mM sodium orthovanadate, 50 mM MgCl2), and 3.3× DAG solution (15 µL of 3 µg/µL 1,2-dioleoyl-sn-glycerol resuspended by sonication in 4 mM EGTA in 25 mM Hepes pH 8). […] TLC was run 10 cm and dried before radioactive signals were detected by GS-250 molecular imager and was quantified by quantity one (Bio-Rad, Hercules, CA) software assuring the absence of saturated spots. […]

DGKα = DGKα (Homo sapiens, UniProt P23743); test: Isoform specificity, DGKα homogenates of transfected 293T cells; assay type: biochemical; details: 100 µM; 293T homogenates
Description: as §1, §2

serotonin receptors [1] = test: Superoxide anion production: serotonin effect on PMA-induced oxidative burst in monocytes; assay type: cell-based; details: drugs 10 µM, 1 h; serotonin 1 µM; PMA 1 µM 30 min; human monocytes
Description: Human monocytes were isolated from healthy anonymous human buffy coats (provided by the Transfusion Service of Ospedale Maggiore della Carità, Novara, Italy) by the standard technique of dextran sedimentation and Histopaque (density = 1.077 g cm^3, Sigma-Aldrich, Milano, Italy) gradient centrifugation (400×g, 30 min, room temperature) and recovered by fine suction at the interface, as described previously. Purified monocytes populations were obtained by adhesion (90 min, 37 °C, 5% CO2) in serum-free RPMI 1640 medium (Sigma-Aldrich, Milano, Italy) supplemented with 2 mM glutamine and antibiotics. Cell viability (trypan blue dye exclusion) was usually >98%.
All the experiments were performed in triplicate using cells isolated from each single donor.
Monocytes (250,000 cells/well) were treated for 1 h with the indicated drugs (10 µM) with or without serotonin (1 µM). Then, cells were stimulated with phorbol 12-myristate 13-acetate (PMA; Sigma-Aldrich, Milano, Italy) 1 µM for 30 min. PMA is a well-known stimulus that induces a strong and significant respiratory burst via PKC activation. Superoxide anion production was then evaluated by the superoxide dismutase (SOD)-sensitive cytochrome C (CytC) reduction assay and expressed as nmoles CytC reduced/10^6 cells/30 min, using an extinction coefficient of 21.1 mM. To avoid interference with spectrophotometrical recordings, cells were incubated with RPMI 1640 without phenol red, antibiotics, and FBS.
To this purpose, we measured the effect of serotonin on PMA-induced oxidative burst in human monocytes. As previously shown, 1 µM serotonin reverses the oxidative burst to control values.
Figure 8. […] Results are expressed as n moles of reduced cytochrome C/10^6 cells. Data are means ± SEM of 10 independent experiments performed in triplicate.

serotonin receptors [2] = tested on: serotonin receptors; set-up: method as in PMID 30611057; details: cited from earlier work

T1 sequence (Q13574 whole entry, species assumed, canonical isoform): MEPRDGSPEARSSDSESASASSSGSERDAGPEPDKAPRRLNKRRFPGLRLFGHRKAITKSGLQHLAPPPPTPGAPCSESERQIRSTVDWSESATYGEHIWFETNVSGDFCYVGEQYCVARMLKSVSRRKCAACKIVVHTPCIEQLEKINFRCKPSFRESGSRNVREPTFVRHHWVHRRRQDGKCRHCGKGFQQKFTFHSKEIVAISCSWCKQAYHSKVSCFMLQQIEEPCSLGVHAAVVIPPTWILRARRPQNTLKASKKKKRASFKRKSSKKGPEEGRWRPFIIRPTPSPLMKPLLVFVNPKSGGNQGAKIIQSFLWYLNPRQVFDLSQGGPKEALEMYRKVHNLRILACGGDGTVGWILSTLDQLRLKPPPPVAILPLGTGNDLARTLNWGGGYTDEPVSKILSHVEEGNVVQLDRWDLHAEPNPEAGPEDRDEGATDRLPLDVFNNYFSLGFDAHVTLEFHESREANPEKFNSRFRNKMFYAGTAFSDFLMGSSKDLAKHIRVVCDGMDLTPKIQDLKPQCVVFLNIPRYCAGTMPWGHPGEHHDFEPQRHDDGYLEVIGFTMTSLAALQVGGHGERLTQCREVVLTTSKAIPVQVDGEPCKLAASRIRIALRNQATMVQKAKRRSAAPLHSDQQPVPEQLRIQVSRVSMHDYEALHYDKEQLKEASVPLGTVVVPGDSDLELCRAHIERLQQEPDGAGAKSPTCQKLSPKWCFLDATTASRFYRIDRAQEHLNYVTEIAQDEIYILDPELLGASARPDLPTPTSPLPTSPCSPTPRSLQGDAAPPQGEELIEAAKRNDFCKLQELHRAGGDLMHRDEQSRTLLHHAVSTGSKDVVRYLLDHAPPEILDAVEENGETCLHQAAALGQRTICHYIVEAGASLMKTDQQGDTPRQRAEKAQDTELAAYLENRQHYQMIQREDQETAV
Sequence of DGKα (P23743 whole entry, canonical isoform): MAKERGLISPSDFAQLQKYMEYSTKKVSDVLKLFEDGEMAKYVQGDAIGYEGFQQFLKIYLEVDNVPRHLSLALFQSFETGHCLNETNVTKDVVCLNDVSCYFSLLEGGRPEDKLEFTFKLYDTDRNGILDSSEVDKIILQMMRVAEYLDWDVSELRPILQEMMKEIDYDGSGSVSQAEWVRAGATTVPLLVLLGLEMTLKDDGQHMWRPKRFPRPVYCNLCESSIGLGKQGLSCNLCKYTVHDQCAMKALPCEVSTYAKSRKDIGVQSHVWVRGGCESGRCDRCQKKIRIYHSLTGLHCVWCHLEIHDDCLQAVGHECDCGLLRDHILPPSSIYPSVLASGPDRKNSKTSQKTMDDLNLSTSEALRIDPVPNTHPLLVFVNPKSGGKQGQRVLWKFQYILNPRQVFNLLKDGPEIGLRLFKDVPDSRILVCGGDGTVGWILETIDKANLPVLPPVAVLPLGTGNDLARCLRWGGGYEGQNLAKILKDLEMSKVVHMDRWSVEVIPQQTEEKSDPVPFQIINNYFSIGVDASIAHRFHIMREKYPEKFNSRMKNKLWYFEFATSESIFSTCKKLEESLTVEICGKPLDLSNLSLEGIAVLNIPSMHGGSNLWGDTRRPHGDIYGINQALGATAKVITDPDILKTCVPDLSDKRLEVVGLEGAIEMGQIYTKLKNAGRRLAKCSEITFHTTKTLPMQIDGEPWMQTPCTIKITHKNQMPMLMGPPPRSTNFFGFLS

Cc1ccc2c(C(=O)CN3CCN(C(=O)c4ccco4)CC3)c(C)[nH]c2c1 [Amb639752]
effect on DGKζ activity (DGKζ): do not have significant effects | inhibition of DGKα activity (DGKα): completely inhibit | effect on serotonin action on PMA-induced oxidative burst (serotonin receptors [1]): had no effect | anti-serotoninergic activity (serotonin receptors [2]): no effects on serotonin activity; also recorded: devoid of anti-serotoninergic activity
